Source: patent US12059425B2, “Heterocyclic compounds and uses thereof” (Kumquat Biosciences Inc., priority 2022, dated 2024)

Tests used:
GP2D cells = assay: Ras cellular assay, cell proliferation GP2D; type: cell-based
Experimental: (§1) For example, this assay can be also used to assess selective growth inhibition of a mutant Ras protein relative to a wildtype, or relative to a different mutant Ras protein.
ASPC-1 (ATCC CRL-1682), Panc-10.05 (ATCC CRL-2547), A427, GP2d cell lines or any other cell lines comprising a G12D mutation can be used to assess Ras cellular signaling in vitro, e.g., in response to a compound described herein. For example, ASPC-1 culture medium is prepared with RPMI-1640 and 10% heat-inactivated FBS. Panc-10.05 culture medium is prepared with RPMI-1640, 10 Units/mL human recombinant insulin, and 10% FBS. A427 cell culture is prepared with RPMI-1640 and 10% heat-inactivated FBS. A CellTiter-Glo (CTG) luminescent based assay (Promega) is used to assess growth of the cells, as a measurement of the ability of the compounds herein to inhibit Ras signaling in the cells. The cells (e.g., 800 per well) are seeded in their respective culture medium in standard tissue culture-treated 384-well format plates (Falcon #08-772-116) or ultra-low attachment surface 384-well format plates (S-Bio #MS-9384UZ). The day after plating, cells are treated with a dilution series (e.g., a 9 point 3-fold dilution series) of the compounds herein (e.g., approximately 40 μL final volume per well). Cell viability can be monitored (e.g., approximately 5 days later) according to the manufacturer's recommended instructions, where the CellTiter-Glo reagent is added (e.g., approximately 10 μL), vigorously mixed, covered, and placed on a plate shaker (e.g., approximately for 20 min) to ensure sufficient cell lysis prior to assessment of luminescent signal. The IC50 values are determined using the four parameter fit. The resulting IC50 value is a measurement of the ability of the test compound to reduce cell growth of Ras-driven cells (e.g., tumor cell lines) in vitro and/or in vivo.

K-Ras G12V = molecular target: T1, K-Ras G12V (Homo sapiens, UniProt P01116, G12V); assay: PPI-HTRF assay, K-Ras G12V / SOS1 interaction; type: biochemical; settings: HTRF, K-Ras G12V; read-out: PPI-HTRF-5 nM (K-Ras G12V IC50)
T1 construct: made in house; host or cells: E. coli, e.g. BL21 (DE3)
Outline: (§2)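 Compound in DMSO is dispensed first, then GST-K-Ras plus anti-GST-Eu(K), then His-hSOS1 plus anti-6His-XL665. Plates incubate about 10 min or longer before HTRF measurement at 620 and 665 nm. IC50 values are derived from the emission ratio for each K-Ras variant.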

K-Ras G12S = molecular target: T2, K-Ras G12S (Homo sapiens, UniProt P01116, G12S); assay: PPI-HTRF assay, K-Ras G12S / SOS1 interaction; type: biochemical; settings: read-out: PPI-HTRF-5 nM (K-Ras G12S IC50)
T2 construct: made in house; host or cells: E. coli, e.g. BL21 (DE3)
Outline: as §2

wildtype K-Ras = molecular target: T3, wildtype K-Ras (Homo sapiens, UniProt P01116); assay: PPI-HTRF assay, wildtype K-Ras / SOS1 interaction; type: biochemical; settings: HTRF, K-Ras wt; read-out: PPI-HTRF-5 nM (K-Ras wt IC50)
T3 construct: made in house; host or cells: E. coli, e.g. BL21 (DE3)
Outline: as §2

SW620 cells = assay: Ras cellular assay, cell proliferation SW620; type: cell-based; settings: Homo sapiens, SW-620
From the text: as §1

K-Ras G12D = molecular target: T4, K-Ras G12D (Homo sapiens, UniProt P01116, G12D); assay: PPI-HTRF assay, K-Ras G12D / SOS1 interaction; type: biochemical; settings: HTRF, K-Ras G12D; read-out: PPI-HTRF-5 nM (K-Ras G12D IC50)
T4 construct: made in house; host or cells: E. coli, e.g. BL21 (DE3)
Outline: as §2

A549 cells = assay: Ras cellular assay, cell proliferation A549; type: cell-based; settings: Homo sapiens
Experimental: as §1
A549 (ATCC CRL-185) and LS123 (ATCC CRL-255) cell lines comprise a G12S mutation and can be used to assess Ras cellular signaling in vitro, e.g., in response to treatment with a compound described herein. A549 culture medium is prepared with RPMI-1640 and 10% heat-inactivated FBS. LS123 culture medium is prepared with RPMI-1640 and 10% heat-inactivated FBS. A CellTiter-Glo (CTG) luminescent based assay (Promega) is used to assess growth of the cells, as a measurement of the ability of the compounds herein to inhibit Ras signaling in the cells. The cells (e.g., 800 per well) are seeded in their respective culture medium in standard tissue culture-treated 384-well format plates (Falcon #08-772-116) or ultra-low attachment surface 384-well format plates (S-Bio #MS-9384WZ). The day after plating, cells are treated with a dilution series (e.g., a 10 point, 3-fold dilution series) of the compounds herein (e.g., approximately 40 μL final volume per well). Cell viability can be monitored (e.g., approximately 6 days later) according to the manufacturer's recommended instructions, where CellTiter-Glo reagent is added (e.g., approximately 10 μL), vigorously mixed, covered, and placed on a plate shaker (e.g., approximately for 20 min) to ensure sufficient cell lysis prior to assessment of luminescent signal. The IC50 values are determined using the four parameter fit. The resulting IC50 value is a measurement of the ability of the test compound to reduce cell growth of Ras-driven cells (e.g., tumor cell lines) in vitro and/or in vivo.

T1 sequence (P01116 1-188 isoform P01116-2 G12V): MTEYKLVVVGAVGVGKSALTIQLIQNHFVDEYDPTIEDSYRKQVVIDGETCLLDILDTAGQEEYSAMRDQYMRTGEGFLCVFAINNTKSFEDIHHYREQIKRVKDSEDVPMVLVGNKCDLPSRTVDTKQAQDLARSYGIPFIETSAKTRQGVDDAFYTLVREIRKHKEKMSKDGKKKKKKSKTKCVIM
T3 sequence (P01116 1-188 isoform P01116-2): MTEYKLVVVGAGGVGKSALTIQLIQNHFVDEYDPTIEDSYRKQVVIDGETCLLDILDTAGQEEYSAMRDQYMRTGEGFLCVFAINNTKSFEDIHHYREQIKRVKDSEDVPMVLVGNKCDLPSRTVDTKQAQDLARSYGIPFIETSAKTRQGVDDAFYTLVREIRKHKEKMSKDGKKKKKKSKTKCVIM
T4 sequence (P01116 1-188 isoform P01116-2 G12D): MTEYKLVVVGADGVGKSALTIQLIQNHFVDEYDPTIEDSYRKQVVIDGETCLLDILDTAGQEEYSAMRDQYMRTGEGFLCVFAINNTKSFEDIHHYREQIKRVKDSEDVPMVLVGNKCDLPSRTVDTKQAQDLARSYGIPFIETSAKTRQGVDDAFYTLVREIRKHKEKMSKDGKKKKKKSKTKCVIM
T2 sequence (P01116 1-188 isoform P01116-2 G12S): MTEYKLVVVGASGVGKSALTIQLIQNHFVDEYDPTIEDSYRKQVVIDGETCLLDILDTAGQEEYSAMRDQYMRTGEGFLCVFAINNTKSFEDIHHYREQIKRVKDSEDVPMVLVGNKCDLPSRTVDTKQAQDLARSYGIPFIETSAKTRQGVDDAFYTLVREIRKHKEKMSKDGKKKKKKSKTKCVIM

SMILES	IC50 (K-Ras G12V) [µM]	IC50 (K-Ras G12S) [µM]	IC50 (wildtype K-Ras) [µM]	IC50 (SW620 cells) [µM]	IC50 (K-Ras G12D) [µM]	IC50 (A549 cells) [µM]	IC50 (GP2D cells) [µM]
N#Cc1c(N)sc2c(F)ccc(-c3c(Cl)c4c5c(nc(OC[C@@]67CCCN6C[C@H](F)C7)nc5c3F)NC3COCC3CO4)c12 (stereo partly drawn) [compound 208, 2-amino-4-(6-chloro-4-fluoro-2-(((2R,7aS)-2-fluorotetrahydro-1H-pyrrolizin-7a(5H)-yl)methoxy)-8a,9,11a,12-tetrahydro-8H,11H-furo[3′,4′:6,7][1,5]oxazocino[4,3,2-de]quinazolin-5-yl)-7-fluorobenzo[b]thiophene-3-carbonitrile]	< 5	< 5	< 5	< 5	< 5	–	< 5
CC1Oc2c(Cl)c(-c3ccc(F)c4sc(N)c(C#N)c34)c(F)c3nc(OC[C@@]45CCCN4C[C@H](F)C5)nc(c23)N(C)C2COCC12 (stereo partly shown) [compound 104]	< 5	< 5	< 5	< 5	< 5	–	< 5
N#Cc1c(N)sc2c(F)ccc(-c3c(Cl)c4c5c(nc(OC[C@@]67CCCN6C[C@H](F)C7)nc5c3F)N3CCC(C#N)CC3CO4)c12 (single isomer, unassigned) [compound 105]	< 5	< 5	< 5	< 5	–	< 5	–
CN1c2nc(OC[C@@]34CCCN3C[C@H](F)C4)nc3c(F)c(-c4ccc(F)c5sc(N)c(C#N)c45)c(Cl)c(c23)OCC2CCCC21 (stereo partly drawn) [compound 110, 2-amino-4-(6-chloro-4-fluoro-2-(((2R,7aS)-2-fluorotetrahydro-1H-pyrrolizin-7a(5H)-yl)methoxy)-12-methyl-8a,9,10,11,11a,12-hexahydro-8H-cyclopenta[6,7][1,5]oxazocino[4,3,2-de]quinazolin-5-yl)-7-fluorobenzo[b]thiophene-3-carbonitrile]	< 5	< 5	< 5	< 5	–	> 5	> 5
N#Cc1c(N)sc2c(F)ccc(-c3c(Cl)c4c5c(nc(OC[C@@]67CCCN6C[C@H](F)C7)nc5c3F)N3CCC[C@@H]3CCO4)c12 [compound 143, 2-amino-4-((13aR)-10-chloro-8-fluoro-6-(((2R,7aS)-2-fluorotetrahydro-1H-pyrrolizin-7a(5H)-yl)methoxy)-1,2,3,12,13,13a-hexahydropyrrolo[1′,2′:5,6][1,5]oxazocino [4,3,2-de]quinazolin-9-yl)-7-fluorobenzo[b]thiophene-3-carbonitrile]	< 5	< 5	< 5	< 5	< 5	< 5	–

Second part, led by results:

IC50 (K-Ras G12V) [µM]	IC50 (K-Ras G12S) [µM]	IC50 (wildtype K-Ras) [µM]	IC50 (SW620 cells) [µM]	IC50 (K-Ras G12D) [µM]	IC50 (A549 cells) [µM]	SMILES	IC50 (GP2D cells) [µM]
< 5	< 5	< 5	< 5	< 5	< 5	N#Cc1c(N)sc2c(F)ccc(-c3c(Cl)c4c5c(nc(OC[C@@]67CCCN6C[C@H](F)C7)nc5c3F)N3CCN(CC(F)F)CCC3CO4)c12 (stereo partly drawn) [compound 170, 2-amino-4-(6-chloro-11-(2,2-difluoroethyl)-4-fluoro-2-(((2R,7aS)-2-fluorotetrahydro-1H-pyrrolizin-7a(5H)-yl)methoxy)-8a,9,10,11,12,13-hexahydro-8H-[1,4]diazepino[7′,1′:3,4][1,4]oxazepino [5,6,7-de]quinazolin-5-yl)-7-fluorobenzo[b]thiophene-3-carbonitrile]	< 5
< 5	< 5	< 5	< 5	–	< 5	N#Cc1c(N)sc2c(F)ccc(-c3c(Cl)c4c5c(nc(OCC67CCCN6C[C@H](F)C7)nc5c3F)N3CCCCC3CCO4)c12 (single isomer, unassigned) [compound 117]	–
< 5	< 5	< 5	< 5	< 5	< 5	N#CCC1CCN2c3nc(OC[C@@]45CCCN4C[C@H](F)C5)nc4c(F)c(-c5ccc(F)c6sc(N)c(C#N)c56)c(Cl)c(c34)OCC2C1 (single isomer, unassigned) [compound 156]	–
< 5	< 5	< 5	< 5	< 5	–	CNC1CCN2c3nc(OC[C@@]45CCCN4C[C@H](F)C5)nc4c(F)c(-c5ccc(F)c6sc(N)c(C#N)c56)c(Cl)c(c34)OCCC2C1 (stereo partly drawn) [compound 158, 2-amino-4-(3-chloro-1-fluoro-13-(((2R,7aS)-2-fluorotetrahydro-1H-pyrrolizin-7a(5H)-yl)methoxy)-8-(methylamino)-6,6a,7,8,9,10-hexahydro-5H-pyrido[11,2′:5,6][1,5]oxazocino[4,3,2-de]quinazolin-2-yl)-7-fluorobenzo[b]thiophene-3-carbonitrile]	> 5
< 5	< 5	< 5	< 5	–	< 5	N#Cc1c(N)sc2c(F)ccc(-c3c(Cl)c4c5c(nc(OC[C@@]67CCCN6C[C@H](F)C7)nc5c3F)N3CC5(CCN5C(=O)n5cncn5)CC3CO4)c12 (stereo partly drawn) [compound 131, 2-Amino-4-(10′-chloro-8′-fluoro-6′-(((2R,7aS)-2-fluorotetrahydro-1H-pyrrolizin-7a(5H)-yl)methoxy)-1-(1H-1,2,4-triazole-1-carbonyl)-12′,12a′-dihydro-1′H,3′H-spiro[azetidine-2,2′-pyrrolo[2′,1′:3,4][1,4]oxazepino[5,6,7-de]quinazolin]-9′-yl)-7-fluorobenzo[b]thiophene-3-carbonitrile]	–
< 5	< 5	< 5	> 5	< 5	–	N#Cc1c(N)sc2c(F)ccc(-c3c(Cl)c4c5c(nc(OC[C@@]67CCCN6C[C@H](F)C7)nc5c3F)N3CC(N)CCC3CCO4)c12 (stereo partly drawn) [compound 129, 2-amino-4-(9-amino-3-chloro-1-fluoro-13-(((2R,7aS)-2-fluorotetrahydro-1H-pyrrolizin-7a(5H)-yl)methoxy)-6,6a,7,8,9,10-hexahydro-5H-pyrido[1′,2′:5,6][1,5]oxazocino[4,3,2-de]quinazolin-2-yl)-7-fluorobenzo[b]thiophene-3-carbonitrile]	< 5
< 5	< 5	< 5	< 5	< 5	–	N#Cc1c(N)sc2c(F)ccc(-c3c(Cl)c4c5c(nc(OC[C@@]67CCCN6C[C@H](F)C7)nc5c3F)N(CC(F)F)CC3COCC3O4)c12 (stereo partly drawn) [compound 112, 2-amino-4-(1-chloro-7-(2,2-difluoroethyl)-3-fluoro-5-(((2R,7aS)-2-fluorotetrahydro-1H-pyrrolizin-7a(5H)-yl)methoxy)-7,8,8a,9,11,11a-hexahydrofuro[3′,4′:7,8][1,5]oxazocino [4,3,2-de]quinazolin-2-yl)-7-fluorobenzo[b]thiophene-3-carbonitrile]	> 5
